Reference: ChEMBL document CHEMBL1142923, “Novel chiral isoxazole derivatives: synthesis and pharmacological characterization at human beta-adrenergic receptor subtypes” (Bioorg Med Chem, 2007)

Tests used:
[1] = target: Beta-1 adrenergic receptor (Homo sapiens, UniProt P08588); assay: Displacement of [125I]CYP from human adrenergic beta 1 receptor transfected in CHO cells in presence of 100 uM GTP; type: cell-based
[2] = target: Beta-2 adrenergic receptor (Homo sapiens, UniProt P07550); assay: Displacement of [125I]CYP from human adrenergic beta 2 receptor transfected in CHO cells in presence of 100 uM GTP; type: cell-based
Sequence of Beta-2 adrenergic receptor (P07550 whole entry): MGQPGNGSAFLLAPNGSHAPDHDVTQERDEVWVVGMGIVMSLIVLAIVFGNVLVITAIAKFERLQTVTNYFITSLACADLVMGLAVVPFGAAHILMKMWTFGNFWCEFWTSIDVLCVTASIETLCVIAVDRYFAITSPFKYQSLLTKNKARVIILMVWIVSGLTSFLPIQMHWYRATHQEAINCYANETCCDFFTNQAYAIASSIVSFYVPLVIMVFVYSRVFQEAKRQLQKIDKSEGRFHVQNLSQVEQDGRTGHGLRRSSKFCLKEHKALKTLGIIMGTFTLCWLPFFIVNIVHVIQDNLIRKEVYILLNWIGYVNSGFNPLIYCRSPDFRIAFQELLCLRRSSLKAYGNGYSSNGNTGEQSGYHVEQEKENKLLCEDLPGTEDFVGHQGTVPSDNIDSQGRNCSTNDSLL

[3] = target: T1, Beta-3 adrenergic receptor (Homo sapiens, UniProt P13945); assay: Displacement of [125I]CYP from human adrenergic beta 3 receptor transfected in CHO cells in presence of 100 uM GTP; type: cell-based
Target sequence in this assay (P13945 whole entry): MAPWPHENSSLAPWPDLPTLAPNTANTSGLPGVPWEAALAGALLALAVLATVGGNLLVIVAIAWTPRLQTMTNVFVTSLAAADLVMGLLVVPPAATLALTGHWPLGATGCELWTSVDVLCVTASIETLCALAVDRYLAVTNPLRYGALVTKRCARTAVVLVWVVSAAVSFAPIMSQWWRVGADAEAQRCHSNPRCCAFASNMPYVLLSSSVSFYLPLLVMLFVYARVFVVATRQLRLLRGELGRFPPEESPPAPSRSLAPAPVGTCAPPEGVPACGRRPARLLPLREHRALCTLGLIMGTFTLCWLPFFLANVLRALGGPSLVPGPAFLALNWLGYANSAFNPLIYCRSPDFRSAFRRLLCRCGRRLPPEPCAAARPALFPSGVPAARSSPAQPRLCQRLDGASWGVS

[4] = target: T1, Beta-3 adrenergic receptor; assay: Efficacy at human adrenergic beta 3 receptor transfected in CHO cells assessed as stimulation of adenylyl cyclase at 100 uM relative to isoproterenol; type: functional, cell-based
Target sequence in this assay (P13945 whole entry, looked up): as the sequence (P13945 whole entry) above

Sequence of Beta-1 adrenergic receptor (P08588 whole entry): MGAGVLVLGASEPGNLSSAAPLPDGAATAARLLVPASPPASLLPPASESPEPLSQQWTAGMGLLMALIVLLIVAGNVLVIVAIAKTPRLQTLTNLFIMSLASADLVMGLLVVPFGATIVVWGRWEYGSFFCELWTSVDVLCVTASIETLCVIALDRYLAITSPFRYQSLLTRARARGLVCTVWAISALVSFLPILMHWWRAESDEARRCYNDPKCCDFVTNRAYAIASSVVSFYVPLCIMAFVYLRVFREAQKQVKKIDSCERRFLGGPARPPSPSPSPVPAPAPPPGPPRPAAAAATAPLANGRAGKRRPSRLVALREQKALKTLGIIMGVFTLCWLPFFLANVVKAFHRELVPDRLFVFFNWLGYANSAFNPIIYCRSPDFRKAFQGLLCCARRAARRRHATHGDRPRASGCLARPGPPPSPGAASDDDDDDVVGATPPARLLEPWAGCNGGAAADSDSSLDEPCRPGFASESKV

Compound | Ki [1] [nM] | Ki [2] [nM] | Ki [3] [nM] | Efficacy [4] [%]
CC(C)(C)NCC(O)c1cc(NS(C)(=O)=O)no1 (racemic) | > 100000 | > 100000 | > 100000 | –
CCCCOc1ccc(C[C@@H](C)NC[C@@H](O)c2cc(Br)no2)cc1 | 2160 | 458 | 10700 | 31
CCCCOc1ccc(C[C@@H](C)NC[C@H](O)c2cc(Br)no2)cc1 | 66.7 | 15.5 | 2490 | 51
CCOC(=O)COc1ccc(C[C@@H](C)NC[C@H](O)c2cc(Br)no2)cc1 | 23.2 | 2.82 | 10100 | 56
CCOC(=O)COc1ccc(C[C@@H](C)NC[C@@H](O)c2cc(Br)no2)cc1 | 1110 | 81.4 | 21800 | 39
C[C@H](Cc1ccc(OCC(=O)O)cc1)NC[C@@H](O)c1cc(Br)no1 | 6460 | 501 | > 50000 | 34
C[C@H](Cc1ccc(OCC(=O)O)cc1)NC[C@H](O)c1cccc(Cl)c1 (racemic) | – | 2850 | – | –
C[C@H](Cc1ccc(OCC(=O)O)cc1)NC[C@H](O)c1cc(Br)no1 | 61.1 | 13.9 | 22000 | 50
